The test has as its target T1, aromatase (Callithrix jacchus, UniProt Q95M61).
T1 construct: gene CYP19A1; microsomal fraction of marmoset placenta
T1 sequence (Q95M61 1-503): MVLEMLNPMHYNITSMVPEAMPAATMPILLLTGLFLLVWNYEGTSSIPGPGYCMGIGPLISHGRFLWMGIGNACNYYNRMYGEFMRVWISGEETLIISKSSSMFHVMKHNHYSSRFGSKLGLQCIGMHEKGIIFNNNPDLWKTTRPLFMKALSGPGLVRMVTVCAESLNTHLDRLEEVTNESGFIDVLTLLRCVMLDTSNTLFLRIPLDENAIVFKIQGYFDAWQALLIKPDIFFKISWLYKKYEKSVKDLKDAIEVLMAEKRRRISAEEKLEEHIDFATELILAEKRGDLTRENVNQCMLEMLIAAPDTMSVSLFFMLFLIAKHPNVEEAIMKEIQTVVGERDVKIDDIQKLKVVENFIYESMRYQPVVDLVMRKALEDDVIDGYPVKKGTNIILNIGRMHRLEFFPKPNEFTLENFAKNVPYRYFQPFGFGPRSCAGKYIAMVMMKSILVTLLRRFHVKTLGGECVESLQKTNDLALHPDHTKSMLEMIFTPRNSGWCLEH
The test is described as follows: inhibition of [[…]-14C]testosterone conversion by placental microsomes, TLC autoradiography. It counts as biochemical.

In the case of `Cc1ccc(CN(c2ccc(C#N)cc2)n2cnnc2)cc1` [cetrozole], the midpoint of inhibition, the IC50, lay at 0.98 nM.

As for `Cc1ccc(CN(c2ccc(C#N)cc2)n2cncn2)cc1` [iso-cetrozole], it took 0.68 nM to reach half-maximal inhibition (IC50).

The compound `Cc1cccc(CN(c2ccc(C#N)cc2)n2cnnc2)c1` [meta-cetrozole] returned an IC50 of 3.5 nM.

As to `Cc1ccc(CN(c2ccc([N+](=O)[O-])cc2)n2cnnc2)cc1` [nitro-cetrozole], it took 0.73 nM to reach half-maximal inhibition (IC50).

(Values after PMC8654920, “PET imaging of brain aromatase in humans and rhesus monkeys by ^11C-labeled cetrozole analogs” (Scientific Reports, 2021).)
